# Measurements: US20240092799A1, “MNK INHIBITORS” (Hepagene Therapeutics (HK) Limited, priority 2020, published 2024)
# pIC50: −log10 of the molar value.
# Molecular target: MNK2 (Homo sapiens (Human), UniProt Q9HBH9)
# Test: MNK Biochemical Enzymatic Assay (ADP-Glo), MNK2 binding assay
# Method: MNK Biochemical Enzymatic Assay. This protocol establishes the binding assays for MNK1 and MNK2 using ADP-Glo assay. MNK phosphorylates the substrate and converts ATP to ADP, which was detected by Envision and used to reflect the reminding activity of MNK. Reagents and equipment used in the assay are listed below, followed by the protocol.
# • a) Add 50 μL compound to 384-well dilution plate • b) Dilute compound 1:3 in succession in DMSO for each column for 10+0 pts (refer to dilution plate map) • c) Transfer 0.1 μL diluted compound solution in each row to 384 assay plate using Echo, each column containing 2 replicates (refer to assay plate map) • d) Add 5 μL enzyme working solution to 384-well assay plate, centrifuge 1000 RPM for 1 min • e) Incubate at 25° C. for 15 min • f) Add 5 μL substrate working solution to initiate reaction • g) Incubate at 25° C. for 60 min • h) Add 10 μL ADP Glo reagent, centrifuge 1000 RPM for 1 min • i) Incubate at 25° C. for 60 min • j) Add 20 μL kinase detection reagent, centrifuge 1000 RPM for 1 min • k) Incubate at 25° C. for 60 min • l) Read on Envision for US LUM as RLU • m) Data analysis: IC50s were determined based on a non-linear regression analysis of data collected.
# MNK2, sequence (Q9HBH9 whole entry): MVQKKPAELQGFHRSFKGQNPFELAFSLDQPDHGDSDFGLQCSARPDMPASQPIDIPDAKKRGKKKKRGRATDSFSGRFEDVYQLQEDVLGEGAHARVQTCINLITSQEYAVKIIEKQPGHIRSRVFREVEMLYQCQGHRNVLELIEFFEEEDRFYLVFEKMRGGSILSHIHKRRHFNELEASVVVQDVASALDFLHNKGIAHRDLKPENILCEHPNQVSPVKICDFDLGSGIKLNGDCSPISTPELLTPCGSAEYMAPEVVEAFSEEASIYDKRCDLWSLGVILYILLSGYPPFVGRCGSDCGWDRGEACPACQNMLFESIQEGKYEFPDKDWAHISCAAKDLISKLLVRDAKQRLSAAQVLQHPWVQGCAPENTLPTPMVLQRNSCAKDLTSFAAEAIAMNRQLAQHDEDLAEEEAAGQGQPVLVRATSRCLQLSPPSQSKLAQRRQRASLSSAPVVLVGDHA
row,SMILES,pIC50
1,"CNc1cc(Nc2cc3c(s2)C(=O)NC32CCCCC2)ncn1 [Compound XXIII, 2′-((6-(Methylamino)pyrimidin-4-yl)amino)spiro[cyclohexane-1,4′-thieno[2,3-c]pyrrol]-6′(5′H)-one]",7.00 to 8.00
2,"NC1CCN(c2cc(Nc3cc4c(s3)C(=O)NC43CCCCC3)ncn2)C1 (centres unmarked) [Compound XXIII-D, 2′-((6-(3-Aminopyrrolidin-1-yl)pyrimidin-4-yl)amino)spiro[cyclohexane-1,4′-thieno[2,3-c]pyrrol]-6′(5′H)-one]",< 6.00
3,"O=C1NC2(CCCCC2)c2cc(Nc3ncnc4sc5c(c34)CCC(C(=O)N3CCC3)C5)sc21 (centres unmarked) [Compound XXV-D, 2′-((7-(azetidine-1-carbonyl)-5,6,7,8-tetrahydrobenzo[4,5]thieno[2,3-d]pyrimidin-4-yl)amino)spiro[cyclohexane-1,4′-thieno[2,3-c]pyrrol]-6′(5′H)-one]",7.00 to 8.00
4,"COc1c(Nc2nc3c(s2)C(=O)NC32CCCCC2)ncnc1N[C@H]1CCOC1 [Compound XXVIII-F, (S)-2′-((5-methoxy-6-((tetrahydrofuran-3-yl)amino)pyrimidin-4-yl)amino)spiro[cyclohexane-1,4′-pyrrolo[3,4-d]thiazol]-6′(5′H)-one]",< 6.00
5,"O=C1NC2(CCCCC2)c2cc(Nc3ncnc4sc5c(c34)CCC(C(=O)O)C5)sc21 (centres unmarked) [Compound XXV-6, 4-((6′-Oxo-5′,6′-dihydrospiro[cyclohexane-1,4′-thieno[2,3-c]pyrrol]-2′-yl)amino)-5,6,7,8-tetrahydrobenzo[4,5]thieno[2,3-d]pyrimidine-7-carboxylic acid]",7.00 to 8.00
6,"Cc1cc(Nc2cc3c(s2)C(=O)NC32CCCCC2)ncn1 [Compound XXIII-I, 2′-((6-Methylpyrimidin-4-yl)amino)spiro[cyclohexane-1,4′-thieno[2,3-c]pyrrol]-6′(5′H)-one]",6.00 to 7.00
7,"O=C1NC2(CCCCC2)c2cc(Nc3cc(Nc4ccncc4)ncn3)sc21 [Compound XXIII-O, 2′-((6-(pyridin-4-ylamino)pyrimidin-4-yl)amino)spiro[cyclohexane-1,4′-thieno[2,3-c]pyrrol]-6′(5′H)-one]",7.00 to 8.00
8,"CN(C)CCNc1cc(Nc2cc3c(s2)C(=O)NC32CCCCC2)ncn1 [Compound XXIII-A, 2′-((6-((2-(Dimethylamino)ethyl)amino)pyrimidin-4-yl)amino)spiro [cyclohexane-1,4′-thieno[2,3-c]pyrrol]-6′(5′H)-one]",6.00 to 7.00
9,"O=C(Nc1cc(Nc2cc3c(s2)C(=O)NC32CCCCC2)ncn1)c1ccccc1 [Compound XX-E, N-(6-((6′-oxo-5′,6′-dihydrospiro[cyclohexane-1,4′-thieno[2,3-c]pyrrol]-2′-yl)amino)pyrimidin-4-yl)benzamide]",7.00 to 8.00
10,"COc1c(NC(=O)C2CC2)ncnc1Nc1cc2c(s1)C(=O)NC21CCCCC1 [Compound XX-B, N-(5-Methoxy-6-((6′-oxo-5′,6′-dihydrospiro[cyclohexane-1,4′-thieno[2,3-c]pyrrol]-2′-yl)amino)pyrimidin-4-yl)cyclopropanecarboxamide]",6.00 to 7.00
11,"O=C1NC2(CCCCC2)c2cc(Nc3cc(NC4CCNC4)ncn3)sc21 (centres unmarked) [Compound XXIII-R, 2′-((6-(pyrrolidin-3-ylamino)pyrimidin-4-yl)amino)spiro[cyclohexane-1,4′-thieno[2,3-c]pyrrol]-6′(5′H)-one]",6.00 to 7.00
12,"Nc1cc(Nc2cc3c(s2)C(=O)NC32CCCCC2)ncn1 [Compound X, 2′-((6-Aminopyrimidin-4-yl)amino)spiro[cyclohexane-1,4′-thieno[2,3-c]pyrrol]-6′(5′H)-one]",7.00 to 8.00
13,"Nc1cc(Nc2sc3c(c2Cl)C2(CCCCC2)NC3=O)ncn1 [Compound XXI, 2′-((6-Aminopyrimidin-4-yl)amino)-3′-chlorospiro[cyclohexane-1,4′-thieno[2,3-c]pyrrol]-6′(5′H)-one]",6.00 to 7.00
14,"Cc1c(N)ncnc1Nc1cc2c(s1)C(=O)NC21CCCCC1 [Compound X-D, 2′-((6-amino-5-methylpyrimidin-4-yl)amino)spiro[cyclohexane-1,4′-thieno[2,3-c]pyrrol]-6′(5′H)-one]",7.00 to 8.00
15,"O=C1NC2(CCCCC2)c2cc(Nc3cc(Nc4ccccc4F)ncn3)sc21 [Compound XXIV-E, 2′-((6-((2-fluorophenyl)amino)pyrimidin-4-yl)amino)spiro[cyclohexane-1,4′-thieno[2,3-c]pyrrol]-6′(5′H)-one]",7.00 to 8.00

# The remaining lines, values ahead:
row,pIC50,SMILES
1,7.00 to 8.00,"Cc1cc(Nc2cc(Nc3ccccc3F)ncn2)[n+]([O-])c2c1C(=O)NC21CCCCC1 [Compound XXIX-AI, 2′-((6-((2-fluorophenyl)amino)pyrimidin-4-yl)amino)-4′-methyl-5′-oxo-5′,6′-dihydrospiro[cyclohexane-1,7′-pyrrolo[3,4-b]pyridine] 1′-oxide]"
2,8.00 to 10.00,"Cc1cc(Nc2ncnc3[nH]ccc23)[n+]([O-])c2c1C(=O)NC21CCCCC1 [Compound XXIX-F, 2′-((7H-pyrrolo[2,3-d]pyrimidin-4-yl)amino)-4′-methyl-5′-oxo-5′,6′-dihydrospiro[cyclohexane-1,7′-pyrrolo[3,4-b]pyridine] 1′-oxide]"
3,6.00 to 7.00,"Cc1cc(Nc2cc(N[C@@H]3CCC[C@@H]3O)ncn2)[n+]([O-])c2c1C(=O)NC21CCCCC1 [Compound XXIX-W, 2′-((6-(((1R,2S)-2-hydroxycyclopentyl)amino)pyrimidin-4-yl)amino)-4′-methyl-5′-oxo-5′,6′-dihydrospiro[cyclohexane-1,7′-pyrrolo[3,4-b]pyridine] 1′-oxide]"
4,7.00 to 8.00,"Cc1cc(Nc2cc(NC(=O)c3ccccn3)ncn2)[n+]([O-])c2c1C(=O)NC21CCCCC1 [Compound XXIX-AAF, 4′-methyl-5′-oxo-2′-((6-(picolinamido)pyrimidin-4-yl)amino)-5′,6′-dihydrospiro[cyclohexane-1,7′-pyrrolo[3,4-b]pyridine] 1′-oxide]"
5,7.00 to 8.00,"Cc1cccnc1Nc1cc(Nc2cc(C)c3c([n+]2[O-])C2(CCCCC2)NC3=O)ncn1 [Compound XXIX-AZ, 4′-methyl-2′-((6-((3-methylpyridin-2-yl)amino)pyrimidin-4-yl)amino)-5′-oxo-5′,6′-dihydrospiro[cyclohexane-1,7′-pyrrolo[3,4-b]pyridine] 1′-oxide]"
6,8.00 to 10.00,"Cc1cc(Nc2cc(Nc3ccnn3C3CCNCC3)ncn2)[n+]([O-])c2c1C(=O)NC21CCCCC1 [Compound XXIX-AAR, 4′-methyl-5′-oxo-2′-((6-((1-(piperidin-4-yl)-1H-pyrazol-5-yl)amino)pyrimidin-4-yl)amino)-5′,6′-dihydrospiro[cyclohexane-1,7′-pyrrolo[3,4-b]pyridine] 1′-oxide]"
7,7.00 to 8.00,"Cc1cc(Nc2cc(NC3CNC3)ncn2)[n+]([O-])c2c1C(=O)NC21CCCCC1 [Compound XXIX-Q, 2′-((6-(azetidin-3-ylamino)pyrimidin-4-yl)amino)-4′-methyl-5′-oxo-5′,6′-dihydrospiro[cyclohexane-1,7′-pyrrolo[3,4-b]pyridine] 1′-oxide]"
8,8.00 to 10.00,"Cc1cc(Nc2cc(Nc3ccc(C4=CCOCC4)cn3)ncn2)[n+]([O-])c2c1C(=O)NC21CCCCC1 [Compound XXIX-AAS, 2′-((6-((5-(3,6-dihydro-2H-pyran-4-yl)pyridin-2-yl)amino)pyrimidin-4-yl)amino)-4′-methyl-5′-oxo-5′,6′-dihydrospiro[cyclohexane-1,7′-pyrrolo[3,4-b]pyridine] 1′-oxide]"
9,6.00 to 7.00,"Cc1nc(Nc2ccccn2)cc(Nc2cc(C)c3c([n+]2[O-])C2(CCCCC2)NC3=O)n1 [Compound XXIX-AAB, 4′-methyl-2′-((2-methyl-6-(pyridin-2-ylamino)pyrimidin-4-yl)amino)-5′-oxo-5′,6′-dihydrospiro[cyclohexane-1,7′-pyrrolo[3,4-b]pyridine] 1′-oxide]"
10,6.00 to 7.00,"COC(=O)C1(Nc2cc(Nc3cc(C)c4c([n+]3[O-])C3(CCCCC3)NC4=O)ncn2)CCOC1 (centres unmarked) [Compound XXIX-AAG, 2′-((6-((3-(methoxycarbonyl)tetrahydrofuran-3-yl)amino)pyrimidin-4-yl)amino)-4′-methyl-5′-oxo-5′,6′-dihydrospiro[cyclohexane-1,7′-pyrrolo[3,4-b]pyridine] 1′-oxide]"
11,7.00 to 8.00,"Cc1cc(Nc2cc(Nc3ccncc3)ncn2)[n+]([O-])c2c1C(=O)NC21CCCCC1 [Compound XXIX-AK, 4′-methyl-5′-oxo-2′-{[6-(pyridin-4-ylamino)pyrimidin-4-yl]amino}-6′H-Spiro[cyclohexane-1,7′-pyrrolo[3,4-b]pyridin]-1′-ium-1′-olate]"
12,7.00 to 8.00,"O=C1NC2(CCCCC2)c2cc(Nc3cc(NCC4CCCO4)ncn3)sc21 (centres unmarked) [Compound XXIII-Q, 2′-((6-(((tetrahydrofuran-2-yl)methyl)amino)pyrimidin-4-yl)amino)spiro[cyclohexane-1,4′-thieno[2,3-c]pyrrol]-6′(5′H)-one]"
13,6.00 to 7.00,"Cc1cc(Nc2cc(NC3=NC(C)(C)CO3)ncn2)[n+]([O-])c2c1C(=O)NC21CCCCC1 [Compound XXIX-M, 2′-((6-((4,4-dimethyl-4,5-dihydrooxazol-2-yl)amino)pyrimidin-4-yl)amino)-4′-methyl-5′-oxo-5′,6′-dihydrospiro[cyclohexane-1,7′-pyrrolo[3,4-b]pyridine] 1′-oxide]"
14,7.00 to 8.00,"Cc1cc(Nc2cc(NC3CCCC3)ncn2)[n+]([O-])c2c1C(=O)NC21CCCCC1 [Compound XXIX-L, 2′-((6-(cyclopentylamino)pyrimidin-4-yl)amino)-4′-methyl-5′-oxo-5′,6′-dihydrospiro[cyclohexane-1,7′-pyrrolo[3,4-b]pyridine] 1′-oxide]"
